The source made the active and inactive calls.
Tests used:
Procathepsin L = Procathepsin L (Homo sapiens, UniProt P07711)
Aspartyl aminopeptidase = molecular target: T1, Aspartyl aminopeptidase (Plasmodium falciparum 3D7, UniProt Q8I2J3)
T1 sequence (Q8I2J3 whole entry): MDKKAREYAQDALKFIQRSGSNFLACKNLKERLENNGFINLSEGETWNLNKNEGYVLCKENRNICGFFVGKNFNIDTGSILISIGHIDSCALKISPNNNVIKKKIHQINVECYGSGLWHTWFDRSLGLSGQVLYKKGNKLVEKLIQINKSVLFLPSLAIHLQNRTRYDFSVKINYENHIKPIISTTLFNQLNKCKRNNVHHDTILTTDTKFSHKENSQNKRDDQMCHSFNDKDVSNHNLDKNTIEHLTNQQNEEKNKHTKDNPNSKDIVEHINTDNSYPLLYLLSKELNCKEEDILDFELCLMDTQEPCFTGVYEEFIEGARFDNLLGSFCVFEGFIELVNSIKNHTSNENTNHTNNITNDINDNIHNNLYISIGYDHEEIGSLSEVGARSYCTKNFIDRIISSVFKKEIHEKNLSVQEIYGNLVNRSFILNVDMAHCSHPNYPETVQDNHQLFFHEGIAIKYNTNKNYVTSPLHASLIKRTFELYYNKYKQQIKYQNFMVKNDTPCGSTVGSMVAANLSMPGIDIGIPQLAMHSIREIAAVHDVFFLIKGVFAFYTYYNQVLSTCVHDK

[1] = molecular target: T2, Carboxy-terminal domain RNA polymerase II polypeptide A small phosphatase 1 (Homo sapiens, UniProt Q9GZU7); experiment: CTDSP1 inhibitors, concentration-response, biochemical, absorbance readout, ultra-high-throughput screen actives (AID 540297); format: functional
T2 sequence (Q9GZU7 whole entry): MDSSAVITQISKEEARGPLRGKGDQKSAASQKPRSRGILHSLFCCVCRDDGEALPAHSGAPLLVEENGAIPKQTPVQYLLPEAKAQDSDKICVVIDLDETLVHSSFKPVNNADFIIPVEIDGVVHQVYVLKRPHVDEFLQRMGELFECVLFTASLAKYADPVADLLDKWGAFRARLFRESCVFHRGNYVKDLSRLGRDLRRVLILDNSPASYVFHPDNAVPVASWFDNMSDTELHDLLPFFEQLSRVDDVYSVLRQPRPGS

[2] = HEK-293T cell viability reduction – luminescence, B-cell screen hits, cytotoxicity control for BCR NF-kB inhibitor project, dose response (AID 489021); format: functional, cell-based;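 also: HEK-293T cells carrying an NF-kB luciferase reporter; cells exposed to compound for about 14 hours before viability readout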
[3] = luciferase reporter signal suppression in cells – H4 neuroglioma cells, luminescence, dose response (AID 1990); format: functional, cell-based
[4] = Luminescence Cell-Based Dose Response HTS to Identify Inhibitors of 5'UTR Stem-Loop Driven Prion Protein mRNA Translation in H4 Neuroglioblastoma Cells. [Related pubchem assays: 1827 (Project Summary), 1813 (Primary HTS)]; format: functional
BJ [5] = experiment: BJ-TERT fibroblast viability loss – cell-based, RAS-independent, luminescence, dose response (AID 1933); format: functional; details: Homo sapiens
[6] = molecular target: T3, RNA-binding protein pos-1 (Caenorhabditis elegans, UniProt G5EF15); experiment: disruptors of C. elegans POS-1 RNA interaction – biochemical, fluorescence polarization, dose response (AID 1964);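 also: purified POS-1 fused to maltose binding protein made in E. coli; potency of compounds blocking POS-1 binding to fluorescent RNA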
T3 sequence (G5EF15 whole entry): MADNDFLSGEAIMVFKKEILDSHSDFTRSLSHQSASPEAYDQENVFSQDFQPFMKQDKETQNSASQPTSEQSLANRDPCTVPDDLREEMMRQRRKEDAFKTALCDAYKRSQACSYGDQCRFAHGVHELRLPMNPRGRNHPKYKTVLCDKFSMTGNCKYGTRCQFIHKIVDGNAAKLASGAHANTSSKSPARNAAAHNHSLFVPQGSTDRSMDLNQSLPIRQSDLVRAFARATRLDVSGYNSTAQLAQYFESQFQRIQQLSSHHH

[7] = DRD fibroblast viability loss – cell-based, non-viral oncogenic, luminescence, dose response (AID 1934); format: functional; details: Homo sapiens
BJ [8] = experiment: BJ-TERT-LT-ST fibroblast viability loss – cell-based, RAS-independent, luminescence, dose response (AID 1935); format: functional; details: Homo sapiens;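 also: BJ fibroblasts immortalized with TERT plus LT and ST oncogenes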
BJ [9] = experiment: growth inhibition of engineered Ras-driven BJ cells – cell-based, alamar blue fluorescence, cherrypicked samples, dose response (AID 2631); format: functional; details: Homo sapiens;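 also: confirmatory dose-response assay in RAS-dependent BJ fibroblasts engineered with TERT, LT and ST, with cytotoxicity read by fluorescence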
[10] = molecular target: T4, Zinc finger protein mex-5 (Caenorhabditis elegans, UniProt Q9XUB2); experiment: potency of MEX-5 RNA-binding blockers – biochemical, C. elegans, fluorescence polarization, dose response (AID 1960)
T4 sequence (Q9XUB2 whole entry): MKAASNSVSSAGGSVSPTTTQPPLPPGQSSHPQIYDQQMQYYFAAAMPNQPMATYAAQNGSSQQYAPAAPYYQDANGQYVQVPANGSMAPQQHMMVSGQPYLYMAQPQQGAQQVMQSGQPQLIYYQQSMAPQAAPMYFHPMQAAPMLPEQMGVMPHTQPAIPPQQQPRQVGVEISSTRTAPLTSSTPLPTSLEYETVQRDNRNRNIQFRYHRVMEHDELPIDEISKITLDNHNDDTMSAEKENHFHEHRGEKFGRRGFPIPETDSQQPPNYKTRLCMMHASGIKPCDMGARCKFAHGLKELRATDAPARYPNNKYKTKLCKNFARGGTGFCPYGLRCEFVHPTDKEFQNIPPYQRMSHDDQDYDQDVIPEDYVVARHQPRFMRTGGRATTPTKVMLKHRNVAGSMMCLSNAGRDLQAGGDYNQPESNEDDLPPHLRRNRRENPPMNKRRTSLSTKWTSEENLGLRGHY

BJ [11] = experiment: cells; format: functional, cell-based; details: Homo sapiens
Cytochrome P450 3A4 = Cytochrome P450 3A4 (Homo sapiens, UniProt P08684);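 also: CYP3A4 tested as one member of a cytochrome P450 panel screen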
Sequence of Cytochrome P450 3A4 (P08684 whole entry): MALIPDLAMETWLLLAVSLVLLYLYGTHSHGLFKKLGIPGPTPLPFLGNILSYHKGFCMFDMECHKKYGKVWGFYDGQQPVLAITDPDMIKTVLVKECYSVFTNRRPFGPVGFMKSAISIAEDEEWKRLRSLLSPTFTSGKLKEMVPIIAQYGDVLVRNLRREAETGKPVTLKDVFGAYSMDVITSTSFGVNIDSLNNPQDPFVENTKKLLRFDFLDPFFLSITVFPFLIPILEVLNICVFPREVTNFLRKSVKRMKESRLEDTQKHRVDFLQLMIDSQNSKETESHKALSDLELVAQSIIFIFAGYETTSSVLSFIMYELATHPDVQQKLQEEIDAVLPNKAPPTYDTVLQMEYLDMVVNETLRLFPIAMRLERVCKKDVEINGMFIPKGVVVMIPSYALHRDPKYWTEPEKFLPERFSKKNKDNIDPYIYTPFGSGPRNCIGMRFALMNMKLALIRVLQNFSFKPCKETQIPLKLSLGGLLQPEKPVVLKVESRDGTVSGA

Cytochrome P450 2C19 = Cytochrome P450 2C19 (Homo sapiens, UniProt P33261); experiment: Cytochrome panel assay with activity outcomes. Panel member name: p450-cyp2c19 Compounds with AC50 equal or less than 10 uM are considered active; format: functional; details: read-out: AC50
Sequence of Cytochrome P450 2C19 (P33261 whole entry): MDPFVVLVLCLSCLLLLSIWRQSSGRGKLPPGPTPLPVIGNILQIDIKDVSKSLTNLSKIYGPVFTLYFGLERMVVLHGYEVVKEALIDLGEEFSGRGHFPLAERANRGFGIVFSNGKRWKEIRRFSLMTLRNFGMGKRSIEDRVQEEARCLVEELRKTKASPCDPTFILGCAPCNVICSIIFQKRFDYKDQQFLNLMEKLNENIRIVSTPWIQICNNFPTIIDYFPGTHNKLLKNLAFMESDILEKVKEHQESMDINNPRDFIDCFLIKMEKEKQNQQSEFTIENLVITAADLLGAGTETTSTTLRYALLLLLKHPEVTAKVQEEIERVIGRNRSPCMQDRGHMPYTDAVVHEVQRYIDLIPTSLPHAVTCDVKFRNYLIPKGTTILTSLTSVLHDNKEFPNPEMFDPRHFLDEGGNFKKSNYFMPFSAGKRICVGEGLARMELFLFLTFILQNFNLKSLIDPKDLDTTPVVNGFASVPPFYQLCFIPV

[12] = HPDE-C7 pancreatic duct cell viability loss – fluorescence, HTS (AID 430); format: functional, cell-based; details: Homo sapiens
[13] = viability of HCT116 lacking mutant beta-catenin – cell-based, human colon tumor, dose response (AID 1045); format: functional;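 also: HCT116 colon tumor cells with beta catenin knocked out; cells exposed to compound for 60 hours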
[14] = THP-1 cell cytotoxicity, dose response, cytotoxicity control for non-replicating M. tuberculosis project (AID 489025); format: functional
Protein RecA = molecular target: T5, Protein RecA (Mycobacterium tuberculosis, UniProt P9WHJ3); experiment: Fluorescence Cell-Free Homogeneous Dose Retest to Identify Inhibitors of RecA-Intein Splicing Activity. [Related pubchem assays (depositor defined):AID2097, AID2223, AID489010, AID492950]; format: functional
T5 sequence (P9WHJ3 whole entry): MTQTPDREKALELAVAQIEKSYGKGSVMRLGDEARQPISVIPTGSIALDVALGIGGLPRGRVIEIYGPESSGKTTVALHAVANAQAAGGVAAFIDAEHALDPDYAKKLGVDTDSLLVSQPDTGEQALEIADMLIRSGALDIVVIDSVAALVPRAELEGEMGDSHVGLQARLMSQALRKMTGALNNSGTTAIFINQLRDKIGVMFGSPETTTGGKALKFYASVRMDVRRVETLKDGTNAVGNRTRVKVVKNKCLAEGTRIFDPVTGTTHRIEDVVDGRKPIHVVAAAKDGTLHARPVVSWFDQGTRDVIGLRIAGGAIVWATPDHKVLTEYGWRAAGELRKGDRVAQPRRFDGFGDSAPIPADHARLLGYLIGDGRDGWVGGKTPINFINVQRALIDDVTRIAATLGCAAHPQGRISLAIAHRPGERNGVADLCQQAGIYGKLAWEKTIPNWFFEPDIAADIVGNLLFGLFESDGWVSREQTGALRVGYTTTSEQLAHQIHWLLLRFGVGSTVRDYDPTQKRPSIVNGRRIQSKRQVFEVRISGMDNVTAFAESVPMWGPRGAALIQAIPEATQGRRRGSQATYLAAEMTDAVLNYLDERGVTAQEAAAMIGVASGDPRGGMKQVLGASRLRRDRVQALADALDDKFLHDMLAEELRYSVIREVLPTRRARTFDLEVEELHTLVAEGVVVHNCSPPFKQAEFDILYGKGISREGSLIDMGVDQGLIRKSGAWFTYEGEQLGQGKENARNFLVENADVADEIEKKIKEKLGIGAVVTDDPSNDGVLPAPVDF

[15] = Vero E6 cell cytotoxicity, dose response, cytotoxicity control for non-replicating M. tuberculosis project, secondary assay (AID 492998); format: functional, VeroE6; details: Vero C1008
Vero = experiment: cells; format: functional; details: Chlorocebus sabaeus
[16] = viability loss of HPDE-C7K cells – cell-based, fluorescence, HTS, primary screen (AID 431); format: functional; details: Homo sapiens
cells = format: functional
[17] = Luminescence Cell-Based Dose Confirmation HTS to Identify Inhibitors of Platelet Dense Granule Release. [Related pubchem assays: 1663 (Primary HTS), 1678 (Summary of Project)]; format: functional
[18] = molecular target: Luciferin 4-monooxygenase (Photinus pyralis, UniProt P08659); experiment: inhibition of purified Photinus pyralis luciferase – biochemical, luminescence, dose response (AID 1891)
Sequence of Luciferin 4-monooxygenase (P08659 whole entry): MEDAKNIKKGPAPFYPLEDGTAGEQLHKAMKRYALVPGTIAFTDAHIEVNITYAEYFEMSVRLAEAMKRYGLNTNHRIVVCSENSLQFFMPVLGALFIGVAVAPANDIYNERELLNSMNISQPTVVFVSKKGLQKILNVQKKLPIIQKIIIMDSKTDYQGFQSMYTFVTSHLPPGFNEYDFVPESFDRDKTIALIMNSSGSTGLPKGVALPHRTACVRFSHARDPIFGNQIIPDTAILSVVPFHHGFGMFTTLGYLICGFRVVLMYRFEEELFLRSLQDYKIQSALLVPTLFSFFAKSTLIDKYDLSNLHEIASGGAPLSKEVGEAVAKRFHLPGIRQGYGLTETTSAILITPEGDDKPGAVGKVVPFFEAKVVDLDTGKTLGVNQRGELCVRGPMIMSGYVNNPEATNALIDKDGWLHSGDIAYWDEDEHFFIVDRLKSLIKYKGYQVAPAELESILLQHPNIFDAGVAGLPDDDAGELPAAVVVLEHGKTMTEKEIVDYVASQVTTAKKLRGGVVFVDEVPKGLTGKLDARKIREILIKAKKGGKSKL

[19] = molecular target: T6, Replicative DNA helicase DnaB (Mycobacterium tuberculosis, UniProt P9WMR3); experiment: DnaB intein splicing inhibitors, dose response, biochemical, cell-free fluorescence (AID 449749); format: functional
T6 sequence (P9WMR3 whole entry): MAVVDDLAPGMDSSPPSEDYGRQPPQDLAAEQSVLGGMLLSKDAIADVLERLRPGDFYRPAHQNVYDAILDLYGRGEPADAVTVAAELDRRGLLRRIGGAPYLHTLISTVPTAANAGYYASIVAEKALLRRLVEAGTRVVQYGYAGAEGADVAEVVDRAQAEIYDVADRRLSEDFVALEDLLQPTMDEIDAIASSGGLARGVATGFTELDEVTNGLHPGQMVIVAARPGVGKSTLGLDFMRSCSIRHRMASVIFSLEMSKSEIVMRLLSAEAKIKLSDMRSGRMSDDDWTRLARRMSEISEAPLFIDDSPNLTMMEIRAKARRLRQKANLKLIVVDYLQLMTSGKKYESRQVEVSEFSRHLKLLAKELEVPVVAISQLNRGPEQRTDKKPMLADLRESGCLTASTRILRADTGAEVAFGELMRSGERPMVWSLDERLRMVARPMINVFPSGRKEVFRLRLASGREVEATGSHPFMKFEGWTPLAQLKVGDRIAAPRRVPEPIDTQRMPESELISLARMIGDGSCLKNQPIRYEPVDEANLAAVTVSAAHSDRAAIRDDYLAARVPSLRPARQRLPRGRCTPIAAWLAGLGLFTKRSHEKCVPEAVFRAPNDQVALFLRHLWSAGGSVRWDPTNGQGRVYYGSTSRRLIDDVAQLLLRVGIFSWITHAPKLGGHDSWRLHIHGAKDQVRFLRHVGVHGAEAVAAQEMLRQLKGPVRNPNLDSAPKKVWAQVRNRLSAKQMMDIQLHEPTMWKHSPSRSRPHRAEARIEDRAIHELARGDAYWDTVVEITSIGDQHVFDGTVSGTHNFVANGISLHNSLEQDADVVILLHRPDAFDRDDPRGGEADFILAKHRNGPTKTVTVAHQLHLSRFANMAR

[20] = viability of PTEN-deleted HCT116 cells – cell-based, HCT116 PTEN knockout, dose response (AID 1047); format: functional;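 also: HCT116 colon tumor cells with PTEN knocked out; cells exposed to compound for 60 hours before readout; potency for loss of cell viability measured by luminescence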
[21] = alpha-synuclein stem-loop luciferase translation blockers – H4 neuroglioma cells, luminescence, confirmation (AID 1988); format: functional, cell-based

Sequence of Procathepsin L (P07711 whole entry): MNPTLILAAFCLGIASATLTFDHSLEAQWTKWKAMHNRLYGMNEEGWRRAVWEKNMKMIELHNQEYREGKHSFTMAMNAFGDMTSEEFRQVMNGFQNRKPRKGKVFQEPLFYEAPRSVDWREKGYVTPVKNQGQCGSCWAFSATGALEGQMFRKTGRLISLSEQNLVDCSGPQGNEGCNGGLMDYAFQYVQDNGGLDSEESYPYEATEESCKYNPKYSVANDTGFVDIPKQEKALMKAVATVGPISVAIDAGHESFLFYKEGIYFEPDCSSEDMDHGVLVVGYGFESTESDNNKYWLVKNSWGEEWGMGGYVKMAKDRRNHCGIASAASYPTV

## CC1(C)C2([N+](=O)[O-])CN3CC1([N+](=O)[O-])CN(C2)C3c1ccc(O)c(O)c1 (configuration not stated)
Procathepsin L
  IC50: > 59.6 µM (not active)
Aspartyl aminopeptidase
  IC50: 1.19 µM (active)

## COc1ccc(/C=C2\SC(=S)N(CCC(=O)Nc3ccc(C(=O)O)cc3)C2=O)cc1
[1]
  IC50: 2.63 µM (active)
[2]
  IC50: > 80 µM (inactive)

## Cc1nc2cc(-c3ccc(Cl)cc3)nn2c(C)c1CCC(=O)NC(C)c1ccc2c(c1)OCCO2 (configuration not stated)
[3]
  EC50: < 0.1 µM (active)
[4]
  EC50: 11.6 µM (active)
[2]
  IC50: > 80 µM (inactive)

## Cc1ccc(-c2nn3c(C)nnc3c3ccccc23)cc1S(=O)(=O)N1CCN(CCO)CC1
[2]
  IC50: > 80 µM (inactive)

## O=C(Nc1cccc(Cl)c1Cl)Nn1cnnc1
Procathepsin L
  IC50: > 59.6 µM (not active)
Aspartyl aminopeptidase
  IC50: 0.631 µM (active)

## CCc1ccc(/C=C2/SC(=S)N(CCC(=O)Nc3cccnc3)C2=O)cc1
BJ [5]
  EC50: 2.88 µM (inconclusive)
[6]
  EC50: 141 µM (active)
[7]
  EC50: 12.8 µM (active)
BJ [8]
  EC50: > 75 µM (inconclusive)
BJ [9]
  EC50: > 66.7 µM (inactive)
[10]
  EC50: > 300 µM (inconclusive)
BJ [11]
  EC50: > 150 µM (inconclusive)
[2]
  IC50: > 80 µM (inactive)

## Cc1ccc(N2C(=O)/C(=C/Nn3cnnc3)c3ccccc3C2=O)cc1
Procathepsin L
  IC50: > 59.6 µM (not active)
Cytochrome P450 3A4
  AC50: 15.8 µM (inconclusive)
Aspartyl aminopeptidase
  IC50: 1.67 µM (active)
Cytochrome P450 2C19
  AC50: 10 µM (inconclusive)

## Cc1cccc(OCCN2CSC(=S)N(C)C2)c1
[12]
  EC50: 6.23 µM (active)
[13]
  EC50: 4.21 µM (active)
[14]
  CC50: 11.8 µM (active)
Protein RecA
  EC50: 12.5 µM (active)
[15]
  CC50: 6.85 µM (active)
Vero
  CC50: 7.62 µM (active)
[16]
  EC50: 6.24 µM (active)
cells
  IC50: 10.4 µM (active)
[17]
  EC50: > 112 µM (not active)
[18]
  EC50: > 112 µM (not active)
[19]
  AC50: 14.7 µM (active)
[20]
  EC50: 7.66 µM (active)

## Cc1ccc(N=C(S)Nn2cnnc2)c(C)c1
Procathepsin L
  IC50: > 59.6 µM (not active)
Aspartyl aminopeptidase
  IC50: 2.11 µM (active)

## Cc1cc(C)cc(C(=O)n2cnnc2N)c1
Procathepsin L
  IC50: > 59.6 µM (not active)
Aspartyl aminopeptidase
  IC50: 2.89 µM (active)

## Cc1ccc(CSc2nnc(SCC(=O)N/N=C/C=C/c3ccccc3[N+](=O)[O-])s2)cc1
[21]
  EC50: 12.1 µM (active)
[3]
  EC50: 9.7 µM (active)
[4]
  EC50: 12.9 µM (active)
[2]
  IC50: > 80 µM (inactive)
